Measured values as given in ChEMBL document CHEMBL1909046, “DrugMatrix in vitro pharmacology data”.

Key:
Caspase-1 = biological target: T1, Caspase-1 (Homo sapiens, UniProt P29466); parameters: species or system Escherichia coli;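 also: Caspase-1 enzyme inhibition assay with a peptide substrate; in other assays of this panel Not Active means under 50% inhibition at 10 µM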
T1 sequence (P29466 whole entry): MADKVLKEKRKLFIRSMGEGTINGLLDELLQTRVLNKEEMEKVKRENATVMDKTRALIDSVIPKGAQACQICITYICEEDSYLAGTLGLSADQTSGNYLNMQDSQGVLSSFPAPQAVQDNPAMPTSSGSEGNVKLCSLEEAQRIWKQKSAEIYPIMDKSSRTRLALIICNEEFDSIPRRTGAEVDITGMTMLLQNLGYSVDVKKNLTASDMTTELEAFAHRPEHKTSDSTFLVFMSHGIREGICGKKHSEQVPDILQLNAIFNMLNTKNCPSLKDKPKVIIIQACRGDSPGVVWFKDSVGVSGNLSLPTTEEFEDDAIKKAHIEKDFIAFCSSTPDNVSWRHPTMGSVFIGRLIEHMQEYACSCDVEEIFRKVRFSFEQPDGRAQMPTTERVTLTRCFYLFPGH

[1] = biological target: Mitogen-activated protein kinase 1 (Homo sapiens, UniProt P28482); assay: DRUGMATRIX: Protein Serine/Threonine Kinase, ERK2 enzyme inhibition (substrate: Myelin Basic Protein); parameters: species or system Escherichia coli; conditions: Not Active = under 50% inhibition at 10 µM
Sequence of Mitogen-activated protein kinase 1 (P28482 whole entry): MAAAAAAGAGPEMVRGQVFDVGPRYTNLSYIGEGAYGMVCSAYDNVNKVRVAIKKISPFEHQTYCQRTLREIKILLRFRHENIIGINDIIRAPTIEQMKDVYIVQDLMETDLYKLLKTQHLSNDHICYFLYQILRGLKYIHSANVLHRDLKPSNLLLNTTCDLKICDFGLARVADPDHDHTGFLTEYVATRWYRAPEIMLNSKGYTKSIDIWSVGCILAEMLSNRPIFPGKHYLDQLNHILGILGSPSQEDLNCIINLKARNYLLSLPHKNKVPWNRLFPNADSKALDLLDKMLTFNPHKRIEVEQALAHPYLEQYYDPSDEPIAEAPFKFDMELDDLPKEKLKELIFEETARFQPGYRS

[2] = DRUGMATRIX: Phosphodiesterase PDE3 enzyme inhibition (substrate: [3H]cAMP + cAMP); assay type: tissue-based, Homo sapiens; conditions: platelet; Not Active = under 50% inhibition at 10 µM
[3] = biological target: Receptor tyrosine-protein kinase erbB-2 (Homo sapiens, UniProt P04626); assay: biochemical; assay type: cell-based, Insect cells; conditions: insect cells;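 also: inhibition of HER2 kinase enzyme activity, measured with Poly(Glu:Tyr) as the phosphorylation substrate; in other assays of this panel Not Active means under 50% inhibition at 10 µM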
Sequence of Receptor tyrosine-protein kinase erbB-2 (P04626 whole entry): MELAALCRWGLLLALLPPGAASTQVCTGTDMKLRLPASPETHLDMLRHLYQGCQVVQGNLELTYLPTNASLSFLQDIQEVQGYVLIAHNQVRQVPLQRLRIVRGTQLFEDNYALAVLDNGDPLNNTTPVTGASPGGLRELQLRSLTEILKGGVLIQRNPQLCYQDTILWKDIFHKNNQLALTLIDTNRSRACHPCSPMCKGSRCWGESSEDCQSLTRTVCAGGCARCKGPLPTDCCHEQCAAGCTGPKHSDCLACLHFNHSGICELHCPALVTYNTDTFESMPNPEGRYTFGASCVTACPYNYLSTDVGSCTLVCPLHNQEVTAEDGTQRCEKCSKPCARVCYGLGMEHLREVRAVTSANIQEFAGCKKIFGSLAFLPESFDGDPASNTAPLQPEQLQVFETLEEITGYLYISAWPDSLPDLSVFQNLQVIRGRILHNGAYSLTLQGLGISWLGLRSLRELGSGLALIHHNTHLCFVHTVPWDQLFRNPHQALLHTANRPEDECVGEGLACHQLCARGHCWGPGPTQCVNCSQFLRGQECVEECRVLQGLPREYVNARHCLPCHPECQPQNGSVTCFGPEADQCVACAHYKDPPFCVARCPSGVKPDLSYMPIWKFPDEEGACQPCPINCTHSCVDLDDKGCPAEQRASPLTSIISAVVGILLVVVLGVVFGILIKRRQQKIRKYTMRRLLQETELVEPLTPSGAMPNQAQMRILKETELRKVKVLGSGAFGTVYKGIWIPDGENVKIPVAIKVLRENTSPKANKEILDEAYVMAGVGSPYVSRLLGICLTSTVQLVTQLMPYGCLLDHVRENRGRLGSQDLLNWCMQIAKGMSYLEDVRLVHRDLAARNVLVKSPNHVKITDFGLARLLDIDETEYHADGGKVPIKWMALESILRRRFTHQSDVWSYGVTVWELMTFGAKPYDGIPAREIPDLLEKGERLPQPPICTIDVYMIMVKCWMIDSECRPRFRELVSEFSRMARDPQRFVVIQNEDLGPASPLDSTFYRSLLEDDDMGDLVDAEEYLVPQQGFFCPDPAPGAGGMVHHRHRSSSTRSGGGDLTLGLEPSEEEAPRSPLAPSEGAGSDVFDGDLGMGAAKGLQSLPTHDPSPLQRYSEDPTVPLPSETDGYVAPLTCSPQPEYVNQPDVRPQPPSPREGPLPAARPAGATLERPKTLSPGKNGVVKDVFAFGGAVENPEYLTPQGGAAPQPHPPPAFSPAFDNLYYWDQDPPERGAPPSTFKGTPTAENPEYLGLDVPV

Vasopressin V1a receptor = Vasopressin V1a receptor (Homo sapiens, UniProt P37288); assay type: cell membranes, Membrane; conditions: hek293; also: in other assays of this panel Not Active means under 50% inhibition at 10 µM
Sequence of Vasopressin V1a receptor (P37288 whole entry): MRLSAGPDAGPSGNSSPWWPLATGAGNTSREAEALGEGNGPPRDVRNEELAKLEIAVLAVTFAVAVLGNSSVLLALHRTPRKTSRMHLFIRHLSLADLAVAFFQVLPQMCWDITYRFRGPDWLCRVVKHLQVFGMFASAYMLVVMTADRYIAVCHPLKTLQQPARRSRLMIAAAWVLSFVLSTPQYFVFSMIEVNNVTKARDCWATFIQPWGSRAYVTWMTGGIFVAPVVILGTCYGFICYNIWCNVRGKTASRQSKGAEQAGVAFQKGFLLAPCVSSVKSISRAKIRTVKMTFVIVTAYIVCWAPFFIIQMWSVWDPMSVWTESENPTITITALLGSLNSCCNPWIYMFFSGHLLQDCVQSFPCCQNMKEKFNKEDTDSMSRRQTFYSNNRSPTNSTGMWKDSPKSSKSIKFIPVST

Carbonic anhydrase 2 = Carbonic anhydrase 2 (Homo sapiens, UniProt P00918); assay: DRUGMATRIX: Carbonic Anhydrase II enzyme inhibition (substrate: 4-Nitrophenyl acetate (4-NPA)); assay type: tissue-based, Erythrocyte; conditions: erythrocyte; Not Active = under 50% inhibition at 10 µM
[4] = biological target: Beta-3 adrenergic receptor (Homo sapiens, UniProt P13945); assay: DRUGMATRIX: Adrenergic beta3 radioligand binding (ligand: [125I] Cyanopindolol); assay type: cell membranes, HEK293, Membrane; conditions: hek293; Not Active = under 50% inhibition at 10 µM
Sequence of Beta-3 adrenergic receptor (P13945 whole entry): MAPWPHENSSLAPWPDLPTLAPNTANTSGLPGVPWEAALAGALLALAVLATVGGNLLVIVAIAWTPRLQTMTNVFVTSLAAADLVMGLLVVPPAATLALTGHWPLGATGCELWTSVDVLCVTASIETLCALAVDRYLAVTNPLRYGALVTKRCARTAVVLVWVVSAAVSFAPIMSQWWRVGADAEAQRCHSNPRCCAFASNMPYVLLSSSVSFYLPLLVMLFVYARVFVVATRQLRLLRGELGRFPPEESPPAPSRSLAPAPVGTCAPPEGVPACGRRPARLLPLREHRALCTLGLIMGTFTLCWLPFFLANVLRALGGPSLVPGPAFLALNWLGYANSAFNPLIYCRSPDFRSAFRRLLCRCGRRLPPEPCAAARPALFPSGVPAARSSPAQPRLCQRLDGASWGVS

[5] = biological target: T2, C-X-C chemokine receptor type 1 (Homo sapiens, UniProt P25024); also: in other assays of this panel Not Active means under 50% inhibition at 10 µM
T2 sequence (P25024 whole entry): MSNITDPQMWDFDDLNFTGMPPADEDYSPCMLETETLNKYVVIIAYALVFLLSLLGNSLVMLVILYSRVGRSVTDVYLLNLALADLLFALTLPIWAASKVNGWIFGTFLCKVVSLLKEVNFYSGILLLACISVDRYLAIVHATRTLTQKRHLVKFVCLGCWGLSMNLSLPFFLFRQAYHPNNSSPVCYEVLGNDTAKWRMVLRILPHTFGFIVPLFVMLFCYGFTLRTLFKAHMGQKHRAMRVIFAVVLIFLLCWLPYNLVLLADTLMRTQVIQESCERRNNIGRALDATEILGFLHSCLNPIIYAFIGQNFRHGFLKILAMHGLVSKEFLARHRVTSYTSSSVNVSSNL

Adenosine receptor A3 = biological target: T3, Adenosine receptor A3 (Homo sapiens, UniProt P0DMS8); assay type: cell membranes, CHO-K1, Membrane; conditions: cho-k1
T3 sequence (P0DMS8 whole entry): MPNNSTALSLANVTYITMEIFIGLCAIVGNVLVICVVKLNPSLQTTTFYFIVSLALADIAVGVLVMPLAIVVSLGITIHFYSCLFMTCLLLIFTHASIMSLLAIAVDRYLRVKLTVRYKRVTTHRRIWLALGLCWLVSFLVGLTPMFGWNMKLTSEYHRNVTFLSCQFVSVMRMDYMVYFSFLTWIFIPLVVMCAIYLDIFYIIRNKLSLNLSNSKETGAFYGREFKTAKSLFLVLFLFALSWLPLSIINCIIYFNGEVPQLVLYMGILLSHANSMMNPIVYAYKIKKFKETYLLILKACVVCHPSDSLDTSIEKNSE

[6] = DRUGMATRIX: Phorbol Ester radioligand binding (ligand: [3H] PDBu); assay type: cell membranes, Mus musculus, ICR, Brain, Membrane; conditions: Not Active = under 50% inhibition at 10 µM
Mu-type opioid receptor = Mu-type opioid receptor (Homo sapiens, UniProt P35372); assay: DRUGMATRIX: Opiate mu (OP3, MOP) radioligand binding (ligand: [3H] Diprenorphine); assay type: cell membranes, CHO-K1, Membrane; conditions: cho-k1; Not Active = under 50% inhibition at 10 µM
Sequence of Mu-type opioid receptor (P35372 whole entry): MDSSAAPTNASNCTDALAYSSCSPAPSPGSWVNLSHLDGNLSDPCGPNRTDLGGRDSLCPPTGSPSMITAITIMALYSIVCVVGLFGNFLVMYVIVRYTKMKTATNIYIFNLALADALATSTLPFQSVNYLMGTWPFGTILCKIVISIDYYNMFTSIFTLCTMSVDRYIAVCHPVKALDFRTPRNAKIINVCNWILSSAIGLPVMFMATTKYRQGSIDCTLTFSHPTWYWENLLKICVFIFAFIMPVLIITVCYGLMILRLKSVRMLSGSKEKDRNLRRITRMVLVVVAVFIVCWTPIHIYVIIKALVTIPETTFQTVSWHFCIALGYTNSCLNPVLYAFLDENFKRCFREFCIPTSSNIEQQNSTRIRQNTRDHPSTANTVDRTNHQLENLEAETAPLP

[7] = DRUGMATRIX: Glutamate, AMPA radioligand binding (ligand: [3H] AMPA); assay type: cell membranes, Rattus norvegicus, Wistar, Cerebral cortex, Membrane; conditions: Not Active = under 50% inhibition at 10 µM
[8] = DRUGMATRIX: Serotonin (5-Hydroxytryptamine) 5-HT3 radioligand binding (ligand: [3H] GR-65630); assay type: cell membranes, Membrane; conditions: hek293; Not Active = under 50% inhibition at 10 µM
[9] = DRUGMATRIX: Calcium Channel Type L, Dihydropyridine radioligand binding (ligand: [3H] Nitrendipine); assay type: cell membranes, Rattus norvegicus, Wistar, Cerebral cortex, Membrane; conditions: Not Active = under 50% inhibition at 10 µM
B2 bradykinin receptor = biological target: T4, B2 bradykinin receptor (Homo sapiens, UniProt P30411); assay type: cell membranes, Membrane; conditions: chem-1; also: in other assays of this panel Not Active means under 50% inhibition at 10 µM
T4 sequence (P30411 whole entry): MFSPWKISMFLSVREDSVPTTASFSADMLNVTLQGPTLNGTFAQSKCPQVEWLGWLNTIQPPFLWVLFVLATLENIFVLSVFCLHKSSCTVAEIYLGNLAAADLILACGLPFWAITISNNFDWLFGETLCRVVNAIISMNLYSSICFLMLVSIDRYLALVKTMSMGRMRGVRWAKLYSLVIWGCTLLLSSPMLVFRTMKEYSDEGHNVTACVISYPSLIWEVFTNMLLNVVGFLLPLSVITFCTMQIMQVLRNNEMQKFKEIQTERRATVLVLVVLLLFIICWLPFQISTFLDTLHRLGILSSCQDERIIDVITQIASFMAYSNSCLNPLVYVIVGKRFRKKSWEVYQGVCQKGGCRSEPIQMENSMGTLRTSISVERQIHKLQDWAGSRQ

[10] = biological target: T5, Type-2 angiotensin II receptor (Homo sapiens, UniProt P50052); assay type: cell-based; conditions: cho-k1; also: in other assays of this panel Not Active means under 50% inhibition at 10 µM
T5 sequence (P50052 whole entry): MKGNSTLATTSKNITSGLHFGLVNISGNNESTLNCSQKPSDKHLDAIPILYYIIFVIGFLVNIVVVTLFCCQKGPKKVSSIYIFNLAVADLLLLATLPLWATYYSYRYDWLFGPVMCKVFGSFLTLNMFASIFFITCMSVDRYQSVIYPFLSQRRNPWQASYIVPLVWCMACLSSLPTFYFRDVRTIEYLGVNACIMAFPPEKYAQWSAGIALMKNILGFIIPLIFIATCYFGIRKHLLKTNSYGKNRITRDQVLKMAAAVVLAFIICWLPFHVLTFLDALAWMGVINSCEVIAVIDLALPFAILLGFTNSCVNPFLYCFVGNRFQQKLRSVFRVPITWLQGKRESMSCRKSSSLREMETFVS

COc1cc(C(=O)NC2CCCNC2)cc(OC)c1OC (centres undefined) [TROXIPIDE]
Not Active: IC50 (Caspase-1) | IC50 [1] | IC50 [2] | Ki [2] | IC50 [3] | IC50 (Vasopressin V1a receptor) | IC50 (Carbonic anhydrase 2) | IC50 [4] | IC50 [5] | IC50 (Adenosine receptor A3) | IC50 [6] | Ki [6] | IC50 (Mu-type opioid receptor) | IC50 [7] | Ki [7] | IC50 [8] | Ki [8] | IC50 [9] | Ki [9] | IC50 (B2 bradykinin receptor) | IC50 [10]

CC(C)[C@H](N)C(=O)OCCOCn1cnc2c(=O)nc(N)[nH]c21 [VALACYCLOVIR]
Not Active: IC50 (Caspase-1) | IC50 [1] | IC50 [2] | Ki [2] | IC50 [3] | IC50 (Vasopressin V1a receptor) | IC50 (Carbonic anhydrase 2) | IC50 [4] | IC50 [5] | IC50 (Adenosine receptor A3) | IC50 [6] | Ki [6] | IC50 (Mu-type opioid receptor) | IC50 [7] | Ki [7] | IC50 [8] | Ki [8] | IC50 [9] | Ki [9] | IC50 (B2 bradykinin receptor) | IC50 [10]

CN[C@H](CC(C)C)C(=O)N[C@H]1C(=O)N[C@@H](CC(N)=O)C(=O)N[C@H]2C(=O)N[C@H]3C(=O)N[C@H](C(=O)N[C@H](C(=O)O)c4cc(O)cc(O)c4-c4cc3ccc4O)[C@H](O)c3ccc(c(Cl)c3)Oc3cc2cc(c3O[C@@H]2O[C@H](CO)[C@@H](O)[C@H](O)[C@H]2O[C@H]2C[C@](C)(N)[C@H](O)[C@H](C)O2)Oc2ccc(cc2Cl)[C@H]1O [VANCOMYCIN]
Not Active: IC50 (Caspase-1) | IC50 [1] | IC50 [2] | Ki [2] | IC50 [3] | IC50 (Vasopressin V1a receptor) | IC50 (Carbonic anhydrase 2) | IC50 [4] | IC50 [5] | IC50 (Adenosine receptor A3) | IC50 [6] | Ki [6] | IC50 (Mu-type opioid receptor) | IC50 [7] | Ki [7] | IC50 [8] | Ki [8] | IC50 [9] | Ki [9] | IC50 (B2 bradykinin receptor) | IC50 [10]

COC(=O)[C@@H]1[C@H]2C[C@H]3c4[nH]c5ccccc5c4CCN3C[C@@H]2CC[C@@H]1O [YOHIMBINE]
Not Active: IC50 (Caspase-1) | IC50 [1] | IC50 [2] | Ki [2] | IC50 [3] | IC50 (Vasopressin V1a receptor) | IC50 (Carbonic anhydrase 2) | IC50 [4] | IC50 [5] | IC50 (Adenosine receptor A3) | IC50 [6] | Ki [6] | IC50 (Mu-type opioid receptor) | IC50 [7] | Ki [7] | IC50 [8] | Ki [8] | IC50 [9] | Ki [9] | IC50 (B2 bradykinin receptor) | IC50 [10]
